Experimental data as given in patent publication US20260250246A1, “PSILOCYBIN ANALOGS, SALTS, COMPOSITIONS, AND METHODS OF USE” (priority 2021, published 2026).
Where “and” joins values, the source holds several entries; their conditions need not be identical. Equal entries are not always repeated. Structures can show the parent of a compound that is named as a salt.

Tests used:
[1] = Maturation in 12 different solvents with thermal cycling (XRPD); assay type: physicochemical; conditions: thermal cycling room temperature/50° C., 3 days
Description: The resulting slurries were subjected to maturation with thermal cycling between room temperature and 50° C. (4 hours at each condition) for 3 days. Solids were then analysed by XRPD.

[2] = Psilocin-d0/psilocin-d10 and psilocybin PK comparative study in rats (oral gavage, intravenous bolus; plasma and brain); conditions: for oral bioavailability: co-dosing of PI-d0 and PI-d10
[3] = Pharmacokinetics of psilocin-d10 and psilocybin in male beagle dog, powder in capsule (PIC) or orally disintegrating tablet (ODT)
[4] = Stability of amorphous form from melt/crash cooling on standing; assay type: physicochemical; conditions: amorphous free base
[5] = Psilocin-d10 pharmacokinetics study in dogs following oral gavage and intravenous (bolus) administrations
[6] = Anti-solvent precipitation: DMF or DMSO solution added to water; assay type: physicochemical
Description: The following techniques were tried but were not successful in the preparation of amorphous material: • i) Crash cooling freeze drying. […] Instead, solutions were formed which became dark within 4 hours, signifying degradation

[7] = Stability studies in acid solutions (PI salt solutions); assay type: physicochemical; conditions: 40° C.
Source text: Ascorbic acid (AsA), acetic acid (AcA), tartaric acid (TA), fumaric acid (FA), citric acid (CA), malic acid (MA), benzenesulfonic acid (BSA), stearic acid (SA), sodium citrate dihydrate, monosodium phosphate hydrate, disodium phosphate were purchased from Sigma Aldrich. Aluminum (III) chloride (AlCl3) and iron (III) chloride (FeCl3) were purchased from Sigma Aldrich. Antioxidants, i.e., ethylenediaminetetraacetic acid (EDTA), ascorbic acid (AsA), L-cysteine (Cys), sodium metabisulfite (NamBiSO3) and propyl gallate (PG) were purchased from Sigma Aldrich. Hydroxypropyl-β-cyclodextrin (CAVASOL® W7 HP, CAVITRON® W7 HP7) and methyl-β-cyclodextrin (CAVASOL® W7 M) were provided by DuPont.
The following chromatographic conditions were used:
Diluent. The diluent used in the below studies was prepared as follows: 100 mL of acetonitrile (ACN) was mixed with 800 mL of water and 100 mL of 1.0 M citric acid and mixed well to prepare 1 L of diluent.
The stability of psilocin in 0.1 M solutions of various acids was tested.
Test solutions: To prepare the test solutions, 0.1 M solutions of AsA, AcA, TA, FA, CA, MA, BSA, and SA were prepared in DI water.

[8] = Stability studies with antioxidants; conditions: EDTA, ascorbic acid, L-cysteine, sodium metabisulfite, propyl gallate; 40° C.
[9] = Long term stability studies with citric acid and sodium citrate buffer; assay type: physicochemical
Description: The long-term stability (up to 25 days) of psilocin in a citric acid solution (0.1 M, pH 1.60) and a sodium citrate buffer (0.1 M, pH 6.01) at 4° C. and 23° C. was assessed.
(§1) Preparation of 0.1 M sodium citrate buffer (pH 6.01): 2.427 g of sodium citrate dihydrate and 0.336 g of citric acid were dissolved in 80 ml of DI water. The pH was adjusted to 6.0 using a 1 M NaOH solution. The final volume was adjusted to 100 ml.
Test solutions: Psilocin (1 mg/ml) was mixed with (i) sodium citrate buffer (0.1 M, pH 6.01) and (ii) citric acid solution (0.1 M, pH 1.60) in 1:1 v/v. The samples were stored at 4° C. and 23° C., and aliquots were sampled at designated timepoints (days 0, 7, 17, and 25).

[10] = Stability studies in sodium citrate buffer; assay type: physicochemical
Description: as §1

[11] = Stability studies with cyclodextrin complexes; conditions: 40° C., with or without metal salts
[12] = Stability studies in citric acid solution
[13] = Observation of freeze dried salt; assay type: physicochemical; conditions: freeze dried from 1,4-dioxane
[14] = ODT, psilocin-d10 dosed 5 mg (nominal 0.5 mg/kg), analyte psilocin-d10, male beagle dog plasma, Mean
[15] = PIC, psilocin-d10 dosed 5 mg (nominal 0.5 mg/kg), analyte psilocin-d10, male beagle dog plasma, Mean
[16] = female dog plasma, single intravenous (bolus) 0.20 mg/kg, Mean, N=3
[17] = female dog plasma, single intravenous (bolus) 0.20 mg/kg, Median, N=3
[18] = female dog plasma, single intravenous (bolus) 0.20 mg/kg, individual animals 60F, 61F, 723F, listed as Psilocin-d10, 0.2 mg/kg
[19] = female dog plasma, single oral (gavage) 1.00 mg/kg, Median, N=3
[20] = female dog plasma, single oral (gavage) 1.00 mg/kg, individual animals 60F, 61F, 723F, listed as Psilocin-d10, 1 mg/kg

CN(C)CCc1c[nH]c2cccc(O)c12 [Compound I-7j, Benzoate Salt of 3-(2-(dimethylamino)ethyl)-1H-indol-4-ol]
crystalline form by XRPD after maturation in 12 solvents [1]: retained their initial crystalline form

CN(C)CCc1c[nH]c2cccc(OP(=O)(O)O)c12 [psilocybin]
Tmax ([2]; rat plasma, Group 3: psilocybin intravenous (bolus) 2.8 mg/kg, label = analyte, IAD = immediately after dosing): IAD | brain concentrations compared to plasma ([2]; rats, after IV dosing): brain concentrations are low

[2H]C([2H])([2H])N(C([2H])([2H])[2H])C([2H])([2H])C([2H])([2H])c1c[nH]c2cccc(O)c12 [Compound I-3j, Benzoate Salt of 3-(2-(bis(methyl-d3)amino)ethyl-1,1,2,2-d4)-1H-indol-4-ol]
crystalline form by XRPD after maturation in 12 solvents [1]: retained their initial crystalline form

CN(C)CCc1c[nH]c2cccc(O)c12 [Compound I-7a, Benzenesulfonate Salt of 3-(2-(dimethylamino)ethyl)-1H-indol-4-ol]
crystalline form by XRPD after maturation in 12 solvents [1]: retained their initial crystalline form

[2H]C([2H])([2H])N(C([2H])([2H])[2H])C([2H])([2H])C([2H])([2H])c1c[nH]c2cccc(O)c12 [Compound I-3, 3-(2-(bis(methyl-d3)amino)ethyl-1,1,2,2-d4)-1H-indol-4-ol]
AUCINF_obs [3, 14]: 213 ng·h/mL | AUClast [3, 14]: 199 ng·h/mL | Cl_F_obs [3, 14]: 40.33 mL/min/kg | Cmax [3, 14]: 67.2 ng/mL | Tmax [3, 14]: 0.542 h | Vz_F_obs [3, 14]: 6.9 L/kg | AUClast [3, 15]: 181 ng·h/mL | Cl_F_obs [3, 15]: 43.5 mL/min/kg | Cmax [3, 15]: 60 ng/mL | T½ [3, 15]: 2.01 h | Vz_F_obs [3, 15]: 7.6 L/kg | psilocin-d10 exposure compared to psilocin exposure after administration of psilocybin ([3]; dogs, independent of formulation): twice as high | stability of amorphous form [4]: not stable for prolonged periods | time of last detectable plasma level ([5]; dogs, oral administration): 9 h | Cmax [5, 16]: 45.8 ng/mL | t1/2 [5, 16]: 1.37 h | AUC0-inf [5, 17]: 95.8 ng·h/mL | AUC0-t [5, 17]: 80.7 ng·h/mL | CL [5, 17]: 34.83 mL/min/kg | Cmax [5, 17]: 45.9 ng/mL | DN Cmax [5, 17]: 230 (ng/mL)/(mg/kg) | Vss [5, 17]: 3.96 L/kg | AUC0-inf [5, 18]: 95.8 ng·h/mL | AUC0-t [5, 18]: 80.7 ng·h/mL | CL [5, 18]: 34.83 mL/min/kg | Cmax [5, 18]: 45.9 ng/mL and 43.9 ng/mL | DN AUC0-inf [5, 18]: 500 (h*ng/mL)/(mg/kg) | DN Cmax [5, 18]: 230 (ng/mL)/(mg/kg) and 220 (ng/mL)/(mg/kg) | Vss [5, 18]: 3.96 L/kg | AUC0-inf [5, 19]: 414 ng·h/mL | AUC0-t [5, 19]: 399 ng·h/mL | t1/2 [5, 19]: 1.80 h | AUC0-inf [5, 20]: 426 ng·h/mL and 414 ng·h/mL | AUC0-t [5, 20]: 404 ng·h/mL and 399 ng·h/mL | Cmax [5, 20]: 126 ng/mL | t1/2 [5, 20]: 1.80 h and 1.82 h and 1.69 h | oral bioavailability ([2]; rats): 12.1% | time until solutions became dark, signifying degradation [6]: ≤ 4 h

CN(C)CCc1c[nH]c2cccc(O)c12 [Compound I-7b, Tartrate Salt of 3-(2-(dimethylamino)ethyl)-1H-indol-4-ol]
crystalline form by XRPD after maturation in 12 solvents [1]: retained their initial crystalline form

CN(C)CCc1c[nH]c2cccc(O)c12 [Compound I-7c, Hemi-Fumarate Salt of 3-(2-(dimethylamino)ethyl)-1H-indol-4-ol]
crystalline form by XRPD after maturation in 12 solvents [1]: complex polymorphism

CN(C)CCc1c[nH]c2cccc(O)c12 [Compound I-7, 3-(2-(dimethylamino)ethyl)-1H-indol-4-ol]
solution stability (% psilocin remaining) ([7]; 0.1 M acid solutions, with or without metal salts, up to 24): excellent stability | solution stability (% psilocin remaining) ([7]; without acid, within 24 hours): nearly all psilocin being degraded | solution stability (% psilocin remaining) ([7]; without acid, with Fe3+ and Al3+ metal ions): significant psilocin degradation | stability against metal salts with antioxidants [8]: none of the antioxidants tested were able to provide stability | long-term solution stability ([9]; citric acid 0.1 M, pH 1.60, 23° C. and 4° C., 25 days): only minimal degradation | time psilocin remained stable ([9]; sodium citrate buffer pH 6.01, cold storage 4° C.): up to 17 days | long-term solution stability ([9]; sodium citrate buffer pH 6.01, room temperature): degradation of psilocin began within a week | solution stability (% psilocin remaining) ([10]; 0.1 M sodium citrate buffer, 4° C. and room temperature): greatly stabilized | degradation of psilocin ([10]; 0.1 M sodium citrate buffer, 40° C.): 10-15% | effect of metal salts (Fe3+ and Al3+) on psilocin ([10]; in 0.1 M citrate buffer): no detrimental effects | solution stability (% psilocin remaining) ([10]; non-citrate buffered, with Fe3+ and Al3+ metal ions): significant psilocin degradation | solution stability (% psilocin remaining) ([10]; without sodium citrate buffer, 4, 23, 40° C., by 18 hour time point): nearly all psilocin being degraded | stability with cyclodextrins [11]: did not impart stability | oral bioavailability ([2]; rats): 7.52% | psilocin stabilization at 24 hour time point ([12]; small quantities of citric acid, 40° C., 24 hour): 30% | solution stability (% psilocin remaining) ([12]; small quantities of citric acid, pH 3.2, 4° C. and 23° C.): greatly enhanced the stability | solution stability (% psilocin remaining) ([12]; without citric acid, 4, 23 and 40° C., by 18 hour time point): nearly all psilocin being degraded | solution stability (% psilocin remaining) ([12]; without citric acid, with Fe3+ and Al3+ metal ions): significant psilocin degradation

CN(C)CCc1c[nH]c2cccc(O)c12 [Compound I-7e, Citrate Salt of 3-(2-(dimethylamino)ethyl)-1H-indol-4-ol]
hygroscopicity of isolated solid [13]: hygroscopic
